From the NIST ThermoML archive (doi:10.1021/je9000679)

Conditions: for surface tension liquid-gas: Maximal bubble pressure; for mass density: 101.33 kPa, Liquid

CCCCCC[n+]1ccccc1.[O]=[Re](=[O])(=[O])[O-] [1-hexylpyridinium perrhenate]
Conditions | mass density [kg/m3] | surface tension liquid-gas [mN/m]
293.15 K | 1794.6 | 34.4
298.15 K | 1787 | 34
303.15 K | 1779 | 33.6
308.15 K | 1771.3 | 33.2
313.15 K | 1765 | 33
318.15 K | 1759 | 32.6
323.15 K | 1751.4 | 32.3
328.15 K | 1743.9 | 32
333.15 K | 1738 | 31.8
338.15 K | 1732.3 | 31.5
343.15 K | 1726.9 | 31.1
